“Also recorded” adds a separate entry of the source. Counter-ions that a name gives are not always drawn.
Assays:
[1] = Dynamic Vapour Sorption (DVS) moisture sorption; type: physicochemical; details: for total uptake of water vapours (max water adsorption, hygroscopicity): relative humidity 0% to 95% in steps of 5%, 1 h per step
Procedure: Moisture sorption isotherms were measured using a DVS-1 system of Surface Measurement Systems (London, UK). Differences in moisture uptake of a solid material indicate differences in the relative stabilities of the various solid forms for increasing relative humidity. The experiment was carried out at a constant temperature of 25° C.
A sample of about 15 mg of TDSU ULT-1 was spread in the DVS pan. The sample was dried at 0% RH for 7 h. Subsequently the relative humidity of the chamber was increased in steps of 5% units from 0% to 95% in order to monitor the sorption of water vapours. The samples remained in each of the steps for 1 h. Following, desorption was monitored by decreasing the relative humidity to 0% in steps of 5% units and remaining at each step for 1 h. The graph of sorption-desorption cycle is shown below. […] In a similar DVS experiment using the starting material as purchased, the total vapour intake was about 4%, which is undesirable in formulation and requires additional measures.

[2] = Intrinsic dissolution rate measurement (micro-dissolution, UV); type: physicochemical; details: for Dissolution rate: 20 ml, 100 rpm
Procedure: 20 ml of high pure water was placed in 25 ml vial in the micro-dissolution thermal block by using a 20 ml volumetric pipette. A large cross stirrer was placed to the vial and the solution was stirred at a speed of 100 rpm. The 5 mm path length tip was placed from the top along with the probe connected with DAD (Diode Array Detector) analyzer. The 100% transmittance and dark spectra was collected by using high pure water. In the next step a tablet of 10 mg of Tenofovir disoproxil succinate (TDSU ULT-1) was pressed on tablet machine and placed along with the stirrer in a 25 ml vial in the micro-dissolution thermal block. The probe was placed along with the 5 mm path length tip and 20 ml of high pure water was added to the sample. The solution was stirred with a speed of 100 rpm and absorbance or the optical density was determined with respect to time by UV spectrometer. The intrinsic dissolution rate was determined by plotting concentration versus time and calculating the slope of the curve.
The same experiments were performed in a similar manner in buffered media of pH values of […]. pH buffers for dissolution pH 1.5: USP SGF without pepsin (0.05M sodium chloride adjusted to pH 1.5 with HCl) pH 3.0: 0.05 sodium di-hydrogen phosphate buffer adjusted to […] with NaOH pH 4.5: 0.05M sodium di-hydrogen phosphate buffer adjusted to pH 4.5 with NaOH pH 6.8: USP SIF without pancreatin (0.05M sodium di-hydrogen phosphate buffer adjusted to pH 6.8 with NaOH) pH 7.4: 0.05M sodium di-hydrogen phosphate adjusted to pH 7.4 with NaOH Results of intrinsic dissolution rate measurements

[3] = known crystalline form; compared with industry limits; cited from earlier work
[4] = Intrinsic dissolution rate measurement (micro-dissolution, UV); type: physicochemical; details: 20 ml, 100 rpm
[5] = Stress testing in climatic chamber, physical and chemical stability by XRPD and HPLC; type: physicochemical; details: 40° C. and 75% relative humidity
Procedure: A small quantity (of about 10 milligrams) of TDSU ULT-1 was placed in a Binder climatic chamber KBR115 series for stress testing under 40° C. and 75% relative humidity (RH). The material was checked for physical and chemical stability by XRPD and HPLC respectively in intervals of 2 and 4 weeks. In both cases the material was stable, i.e. no structural change or chemical degradation took place over the tested period.

Compound | total uptake of water vapours (max water adsorption, hygroscopicity) ([1]; DVS, 25° C.) | Dissolution rate ([2]; Buffer pH 1.5, 10 mg tablet) | Dissolution rate ([2]; Buffer pH 4.5, 10 mg tablet) | Dissolution rate ([2]; water, 10 mg tablet) | Hygroscopicity [3] | Dissolution rate ([4]; Buffer pH 3.0, 10 mg tablet) | Dissolution rate ([4]; Buffer pH 6.8, 10 mg tablet) | hygroscopicity (conclusion from DVS data) ([1]; DVS, 25° C., 0% to 95% RH) | structure by XRPD at the end of the DVS experiment ([1]; after sorption-desorption cycle) | physical and chemical stability (XRPD and HPLC) ([5]; 2 weeks) | physical and chemical stability (XRPD and HPLC) ([5]; 4 weeks) | dissolving faster compared to TDF 1:1 ([2]; in water and in all media with pH values ranging from 1.5 to 7.4) | Dissolution rate ([4]; Buffer pH 7.4, 10 mg tablet)
CC(C)OC(=O)OCOP(=O)(CO[C@H](C)Cn1cnc2c(N)ncnc21)OCOC(=O)OC(C)C [TDF 1:1, 9-[(R)-2-[[bis[[(isopropoxycarbonyl)oxy]methoxy]phosphinyl]methoxy]propyl]adenine fumarate (1:1), reference compound] | about 4% | 3.29 mgmin−1 cm−2 | 0.99 mgmin−1 cm−2 | 1.12 mgmin−1 cm−2 | > 4% | 1.36 mgmin−1 cm−2 | 0.98 mgmin−1 cm−2 |  |  |  |  |  | 
Tenofovir Disoproxil succinate [TDSU ULT-1] | about 0.3% | 10.00 mgmin−1 cm−2 | 3.55 mgmin−1 cm−2 | 1.42 mgmin−1 cm−2 |  | 1.78 mgmin−1 cm−2 | 1.88 mgmin−1 cm−2 | no hygroscopicity; also recorded: not hygroscopic | no any changes in the structure | stable | stable | up to 3 times | 1.09 mgmin−1 cm−2

Source: patent US20110009368A1, “SOLID FORMS OF TENOFOVIR DISOPROXIL” (ULTIMORPHIX TECHNOLOGIES B.V., priority 2007, published 2011)
